Test system: IGF-IRβ, pS6 in wild-type cortical neurons
Experiment: Proteasomal inhibition experiment, Western blot in wild-type cortical neurons
Assay type: cell-based, rat
Conditions: 100 nM bortezomib with 4 μM 17-AGG
Protocol: Hippocampi and cortexes from 18-day-old rat embryos (Charles River CD1) were isolated under the microscope and collected in Hank's Balanced Salt Solution containing 10 mM MgCl2, 1 mM kynurenic acid, 10 mM HEPES and penicillin/streptomycin. After 5 min dissociation at 37° C. in 30 U/ml of papain, neurons were mechanically triturated and plated in Neurobasal (NB) medium containing B27 supplement, 2 mM L-glutamine, penicillin/streptomycin and primocin (NB/B27). Biochemical analysis was performed on cortical cultures plated at 1×10^6 cells/well onto six-well plates. Immunofluorescent analysis was performed on hippocampal cultures plated at 20×10^3 cells/well onto 96-well plates. All plates were coated with 20 μg/ml poly-D-lysine (PDL).
Stocks of drugs were freshly diluted in NB media before performing each experiment. The same amount of vehicle was used as vehicle-only control. For dose response curves serial dilutions were freshly made in NB media by a manual multichannel pipette using compound dilution plates.
Protein extracts were lysed in 1×SDS (22 mM Tris-HCl pH 6.8, 4% Glycerol, 0.8% SDS, 1.6% β-mercaptoethanol, bromphenol blue) sample buffer, heated to 95° C. for 5 min and stored frozen. Before being subjected to discontinuous gel electrophoresis, equal amounts of all protein lysates were verified by Coomassie gel staining. For immunoblotting, equal amounts of protein lysates were subjected to SDS-PAGE, transferred to Immobilon-P Millipore and incubated in LI-COR blocking solution at RT for 2 hrs. Primary and secondary antibodies were diluted in LI-COR blocking solution to the appropriate concentrations. LI-COR IRDye secondary antibodies were used. All images were acquired using the LI-COR Odyssey Classic imager and associated Image Studio Lite analysis software (version 5.2.5). Quantification of protein expression was performed by densitometry scans of immunoblots using LI-COR Odyssey imaging system.

CC(C)C[C@H](NC(=O)[C@H](Cc1ccccc1)NC(=O)c1cnccn1)B(O)O [BTZ, bortezomib]
reduction in S6 phosphorylation caused by 17-AGG: prevented | reduction of IGF-IRβ levels caused by 17-AGG: prevented
